# Measured values as given in PubChem BioAssay AID248 (DTP/NCI, 2004).
# Where “and” joins values, the source holds several entries; their conditions need not be identical. Equal entries are not always repeated. Inconclusive results and toxic doses are left out.
# Tested on: L1210 leukemia ip in BDF1 mice, survival T/C
# Experiment: NCI In Vivo Anticancer Drug Screen. Data for tumor model L1210 Leukemia (intraperitoneal) in B6D2F1 (BDF1) mice
# Details: endpoint: mean survival time, higher = longer survival
# Outline: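 Mice bearing the transplanted tumor received compound or vehicle. Survival of the treated group was divided by that of the vehicle-treated control group to give the ratio.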
# [1] = dose: 100.0 mg/kg/injection, schedule: Q01DX001 (ip), vehicle: saline
# [2] = dose: 200.0 mg/kg/injection, schedule: Q01DX001 (ip), vehicle: saline
# [3] = dose: 100.0 mg/kg/injection, schedule: Q01DX009 (ip), vehicle: saline with Tween-80
# [4] = dose: 100.0 mg/kg/injection, schedule: Q01DX009 (ip), vehicle: saline
# [5] = dose: 100.0 mg/kg/injection, schedule: Q04DX003 (ip), vehicle: saline
# [6] = dose: 200.0 mg/kg/injection, schedule: Q04DX003 (ip), vehicle: saline
# [7] = dose: 400.0 mg/kg/injection, schedule: Q04DX003 (ip), vehicle: saline
# [8] = dose: 200.0 mg/kg/injection, schedule: Q01DX009 (ip), vehicle: saline with Tween-80
# [9] = dose: 400.0 mg/kg/injection, schedule: Q01DX009 (ip), vehicle: saline with Tween-80
# [10] = dose: 400.0 mg/kg/injection, schedule: Q01DX001 (ip), vehicle: saline
# [11] = dose: 100.0 mg/kg/injection, schedule: Q04DX002 (ip), vehicle: Klucel (hydroxypropylcellulose) (HPC)
smiles,measurement,setting,value
C=CCCN1CCCC1,T/C,"dose: 1.5 mg/kg/injection, schedule: Q01DX009 (ip), vehicle: saline with Tween-80",100 % of control
same,T/C,"dose: 3.0 mg/kg/injection, schedule: Q01DX009 (ip), vehicle: saline with Tween-80",93 % of control
same,T/C,"dose: 6.0 mg/kg/injection, schedule: Q01DX009 (ip), vehicle: saline with Tween-80",103 % of control
same,T/C,"dose: 8.0 mg/kg/injection, schedule: Q04DX003 (ip), vehicle: saline with Tween-80",97 % of control and 105 % of control
same,T/C,"dose: 12.0 mg/kg/injection, schedule: Q01DX009 (ip), vehicle: saline with Tween-80",98 % of control
same,T/C,"dose: 12.0 mg/kg/injection, schedule: Q04DX003 (ip), vehicle: saline with Tween-80",100 % of control and 105 % of control
same,T/C,"dose: 18.0 mg/kg/injection, schedule: Q04DX003 (ip), vehicle: saline with Tween-80",103 % of control and 110 % of control
same,T/C,"dose: 25.0 mg/kg/injection, schedule: Q01DX009 (ip), vehicle: saline with Tween-80",88 % of control
same,T/C,"dose: 25.0 mg/kg/injection, schedule: Q04DX003 (ip), vehicle: saline with Tween-80",103 % of control
same,T/C,"dose: 50.0 mg/kg/injection, schedule: Q04DX003 (ip), vehicle: saline with Tween-80",109 % of control
CC(C)(CO)N(CC(=O)O)CC(=O)O,T/C,[1],101 % of control
same,T/C,[2],103 % of control
NC(N)=N/N=C/c1ccccc1O,T/C,"dose: 15.0 mg/kg/injection, schedule: Q01DX Z (ip), vehicle: saline",98 % of control and 91 % of control
same,T/C,"dose: 31.0 mg/kg/injection, schedule: Q01DX Z (ip), vehicle: saline",87 % of control and 91 % of control
same,T/C,"dose: 63.0 mg/kg/injection, schedule: Q01DX Z (ip), vehicle: saline",87 % of control
same,T/C,"dose: 125.0 mg/kg/injection, schedule: Q01DX Z (ip), vehicle: saline",87 % of control
COc1ccc(OC)c(NC(=O)Nc2ccccc2C(F)(F)F)c1,T/C,"dose: 100.0 mg/kg/injection, schedule: Q01DX009 (ip), vehicle: Klucel (hydroxypropylcellulose) (HPC)",102 % of control
same,T/C,"dose: 200.0 mg/kg/injection, schedule: Q01DX009 (ip), vehicle: Klucel (hydroxypropylcellulose) (HPC)",89 % of control
same,T/C,"dose: 400.0 mg/kg/injection, schedule: Q01DX009 (ip), vehicle: Klucel (hydroxypropylcellulose) (HPC)",95 % of control
NC(=O)N/N=C/c1ccc[n+]([O-])c1,T/C,"dose: 37.5 mg/kg/injection, schedule: Q04DX002 (ip), vehicle: saline with Tween-80",102 % of control
same,T/C,"dose: 75.0 mg/kg/injection, schedule: Q04DX002 (ip), vehicle: saline with Tween-80",108 % of control
same,T/C,"dose: 100.0 mg/kg/injection, schedule: Q04DX002 (ip), vehicle: saline with Tween-80",86 % of control
same,T/C,"dose: 150.0 mg/kg/injection, schedule: Q04DX002 (ip), vehicle: saline with Tween-80",97 % of control
same,T/C,"dose: 400.0 mg/kg/injection, schedule: Q04DX002 (ip), vehicle: saline with Tween-80",96 % of control
COP(=O)(O)Oc1ccccc1,T/C,"dose: 87.5 mg/kg/injection, schedule: Q01DX009 (ip), vehicle: saline with Tween-80",100 % of control
same,T/C,"dose: 175.0 mg/kg/injection, schedule: Q01DX009 (ip), vehicle: saline with Tween-80",100 % of control
CC(C)(O)CC(O)(C(F)(F)F)C(F)(F)F,T/C,"dose: 6.0 mg/kg/injection, schedule: Q01DX009 (ip), vehicle: other",94 % of control
same,T/C,"dose: 12.0 mg/kg/injection, schedule: Q01DX009 (ip), vehicle: other",100 % of control
same,T/C,"dose: 25.0 mg/kg/injection, schedule: Q01DX009 (ip), vehicle: other",105 % of control and 106 % of control and 86 % of control
same,T/C,"dose: 50.0 mg/kg/injection, schedule: Q01DX009 (ip), vehicle: other",97 % of control
same,T/C,"dose: 100.0 mg/kg/injection, schedule: Q01DX009 (ip), vehicle: other",98 % of control
CC1C=NNC1=O (stereo not drawn),T/C,[3],124 % of control
same,T/C,[4],115 % of control
same,T/C,[5],104 % of control
same,T/C,[6],112 % of control
same,T/C,"dose: 300.0 mg/kg/injection, schedule: Q#B X027 (ip), vehicle: saline",89 % of control
same,T/C,[7],109 % of control
COC(=O)/C=C/CBr,T/C,"dose: 0.2 mg/kg/injection, schedule: Q01DX015 (ip), vehicle: carboxymethylcellulose (CMC)",91 % of control
same,T/C,"dose: 4.0 mg/kg/injection, schedule: Q01DX015 (ip), vehicle: carboxymethylcellulose (CMC)",109 % of control
same,T/C,"dose: 5.0 mg/kg/injection, schedule: Q01DX001 (ip), vehicle: carboxymethylcellulose (CMC)",95 % of control
same,T/C,"dose: 8.0 mg/kg/injection, schedule: Q01DX015 (ip), vehicle: carboxymethylcellulose (CMC)",91 % of control
same,T/C,"dose: 10.0 mg/kg/injection, schedule: Q01DX001 (ip), vehicle: carboxymethylcellulose (CMC)",93 % of control
same,T/C,"dose: 16.0 mg/kg/injection, schedule: Q01DX015 (ip), vehicle: carboxymethylcellulose (CMC)",100 % of control and 102 % of control
same,T/C,"dose: 32.0 mg/kg/injection, schedule: Q01DX015 (ip), vehicle: carboxymethylcellulose (CMC)",100 % of control
c1ccc(N/N=C(\c2ccccc2)c2cccs2)cc1,T/C,[3],97 % of control
same,T/C,"dose: 100.0 mg/kg/injection, schedule: Q04DX003 (ip), vehicle: saline with Tween-80",98 % of control
same,T/C,[8],97 % of control
same,T/C,"dose: 200.0 mg/kg/injection, schedule: Q04DX003 (ip), vehicle: saline with Tween-80",104 % of control
same,T/C,[9],91 % of control
same,T/C,"dose: 400.0 mg/kg/injection, schedule: Q04DX003 (ip), vehicle: saline with Tween-80",98 % of control
COc1ccc2c(c1)CCN(C1=C(C)C(=O)CC1)C2CC(=O)O (stereo not drawn),T/C,[1],104 % of control
same,T/C,[2],101 % of control
same,T/C,[10],90 % of control
C[N+](C)=C(Cl)Cl,T/C,[1],97 % of control
same,T/C,[2],97 % of control
same,T/C,[10],95 % of control
CCCCCCC(=O)CCCCCC/C=C/CC(O)C(O)C(N)(CO)C(=O)O (stereo not drawn),T/C,"dose: 0.78 mg/kg/injection, schedule: Q04DX002 (ip), vehicle: saline with Tween-80",104 % of control
same,T/C,"dose: 1.56 mg/kg/injection, schedule: Q04DX002 (ip), vehicle: saline with Tween-80",104 % of control
same,T/C,"dose: 3.13 mg/kg/injection, schedule: Q04DX002 (ip), vehicle: saline with Tween-80",100 % of control
COc1ccc(Cl)cc1C/C=N/NC(=O)C[N+](C)(C)C,T/C,"dose: 75.0 mg/kg/injection, schedule: Q01DX001 (ip), vehicle: saline",92 % of control
O=C(c1ccccc1)C(Br)C(C(=O)c1ccccc1)c1ccccc1 (stereo not drawn),T/C,"dose: 50.0 mg/kg/injection, schedule: Q01DX009 (ip), vehicle: saline with Tween-80",94 % of control
same,T/C,[3],90 % of control
same,T/C,[8],86 % of control
Cn1cnc([N+](=O)[O-])c1SCC(=O)O,T/C,[5],102 % of control
same,T/C,[6],102 % of control
same,T/C,[7],101 % of control
CCCCN(CCCC)S(=O)(=O)O,T/C,"dose: 25.0 mg/kg/injection, schedule: Q04DX002 (ip), vehicle: Klucel (hydroxypropylcellulose) (HPC)",101 % of control
same,T/C,"dose: 50.0 mg/kg/injection, schedule: Q04DX002 (ip), vehicle: Klucel (hydroxypropylcellulose) (HPC)",108 % of control
same,T/C,[11],115 % of control
C=COCCCCCCCCCCCC(CCCCCC)OC=C (stereo not drawn),T/C,[11],94 % of control
same,T/C,"dose: 200.0 mg/kg/injection, schedule: Q04DX002 (ip), vehicle: Klucel (hydroxypropylcellulose) (HPC)",105 % of control
ClCCN(CC#CCCCC#CCN(CCCl)CCCl)CCCl,T/C,[1],168 % of control
O=S(=O)(C1CC1c1ccccc1)N(c1ccccc1)c1ccccc1 (stereo not drawn),T/C,"dose: 100.0 mg/kg/injection, schedule: Q01DX001 (ip), vehicle: Klucel (hydroxypropylcellulose) (HPC)",94 % of control
same,T/C,"dose: 100.0 mg/kg/injection, schedule: Q04DX003 (ip), vehicle: Klucel (hydroxypropylcellulose) (HPC)",93 % of control
same,T/C,"dose: 200.0 mg/kg/injection, schedule: Q01DX001 (ip), vehicle: Klucel (hydroxypropylcellulose) (HPC)",100 % of control
same,T/C,"dose: 200.0 mg/kg/injection, schedule: Q04DX003 (ip), vehicle: Klucel (hydroxypropylcellulose) (HPC)",93 % of control
same,T/C,"dose: 400.0 mg/kg/injection, schedule: Q01DX001 (ip), vehicle: Klucel (hydroxypropylcellulose) (HPC)",97 % of control
same,T/C,"dose: 400.0 mg/kg/injection, schedule: Q04DX003 (ip), vehicle: Klucel (hydroxypropylcellulose) (HPC)",93 % of control
O=C(O)CCCCCCCCC(=O)c1ccccc1,T/C,[3],95 % of control
same,T/C,[8],91 % of control
same,T/C,[9],95 % of control
CC1(C(=O)O)CCC2(C)CCC3(C)C(=CC(=O)C4C5(C)CCC(OC6OC(C(=O)O)C(O)C(O)C6OC6OC(C(=O)O)C(O)C(O)C6O)C(C)(C)C5CCC43C)C2C1 (stereo not drawn),T/C,"dose: 50.0 mg/kg/injection, schedule: Q01DX009 (ip), vehicle: saline",94 % of control
same,T/C,[4],91 % of control and 107 % of control and 100 % of control
same,T/C,[5],100 % of control
same,T/C,"dose: 200.0 mg/kg/injection, schedule: Q01DX009 (ip), vehicle: saline",91 % of control and 90 % of control and 94 % of control
same,T/C,[6],105 % of control
same,T/C,"dose: 400.0 mg/kg/injection, schedule: Q01DX009 (ip), vehicle: saline",98 % of control and 93 % of control
same,T/C,[7],103 % of control
